Earlier results, collected in patent publication US7250416B2, “Azacytosine analogs and derivatives” (SuperGen, Inc., priority 2005, dated 2007).
Where two headings read alike, the source gives them in different places.

Legend:
[1] = for steady-state plasma concentration: estimated
[2] = biological target: T1, cytidine deaminase (Homo sapiens, UniProt P32320); conditions: by cytidine deaminase at equal concentrations
T1 construct: the enzyme purified from human liver; from tissue; host or cells: human liver
T1 sequence (P32320 whole entry): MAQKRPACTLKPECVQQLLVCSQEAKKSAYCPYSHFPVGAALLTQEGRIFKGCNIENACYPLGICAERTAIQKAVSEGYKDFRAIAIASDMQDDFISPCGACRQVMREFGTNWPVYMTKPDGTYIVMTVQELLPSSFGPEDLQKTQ

SMILES | steady-state plasma concentration ([1]; 6-hour infusion of 100 mg/m^2) | range of concentrations during infusion ([1]; 600-mg/m^2 infusion) | half-life after discontinuing the infusion ([1]; humans) | total urinary excretion, % of the administered dose ([1]; humans) | volume of distribution ([1]; humans) | terminal half-life ([1]; humans, measured by bioassay) | steady-state plasma concentration ([1]; infusion rate of 1 mg/kg/h) | plasma concentration ([1]; infusion times of 40–60 hours, infusion rate 1 mg/kg/h) | penetration into the cerebrospinal fluid, % of the plasma concentration ([1]; man, end of a 36-hour intravenous infusion) | plasma concentration ([1]; patients, 100 mg/m^2 as a 3-hour infusion) | time of hydrolysis to the amidino-urea derivative (1h) (alkaline medium) | stability in aqueous media (aqueous media, hydrolytic degradation) | maximum infusion time of reconstituted solution (reconstituted aqueous solution stored in the refrigerator for less than 7 hr) | rate of deamination relative to that of decitabine [2]
Nc1ncn([C@H]2C[C@H](O)[C@@H](CO)O2)c(=O)n1 [decitabine, 5-aza-2′-deoxycytidine] | 0.31 to 0.39 µg/mL | 0.41 to 16 µg/mL | 12 to 20 min | less than 1% | about 4.6 L/kg | 10 to 35 min | 0.2 to 0.5 µg/mL | 430 to 760 ng/mL | 14–21% | about 0.4 μg/ml | within a few minutes | unstable | ≤ 3 h | –
Nc1ccn([C@H]2C[C@H](O)[C@@H](CO)O2)c(=O)n1 [deoxycytidine, 2′-deoxycytidine] | – | – | – | – | – | – | – | – | – | – | – | – | – | about 6 fold
